Assay results as given in the NIST ThermoML archive (doi:10.1016/j.jct.2013.08.010).
Numbers after ± are expanded uncertainties.

Tests used:
[1] = mn = molality of the nth substance listed, in mol/kg; settings: 101 kPa, Liquid; for speed of sound: Sing-around technique in a fixed-path interferometer; for mass density: Vibrating tube method
[2] = 101 kPa, Liquid, Sing-around technique in a fixed-path interferometer

O=C([O-])CC(O)(CC(=O)[O-])C(=O)[O-].[Na+].[Na+].[Na+] [trisodium citrate] + O
[1]
Settings	mass density, 288.15 K [kg/m3]	mass density, 298.15 K [kg/m3]	mass density, 308.15 K [kg/m3]	mass density, 318.15 K [kg/m3]	speed of sound, 288.15 K [m/s]	speed of sound, 298.15 K [m/s]	speed of sound, 308.15 K [m/s]	speed of sound, 318.15 K [m/s]
m1 = 0.2	1034.67 ± 0.18	1031.98 ± 0.17	1028.5 ± 0.17	1024.36 ± 0.17	1508 ± 2.2	1536 ± 2.2	1556.9 ± 2.2	1571.8 ± 2.2
m1 = 0.4	1071.21 ± 0.19	1067.93 ± 0.19	1064.13 ± 0.19	1059.23 ± 0.19	1552.2 ± 2.3	1577.5 ± 2.2	1595.8 ± 2.2	1608.3 ± 2.2
m1 = 0.6	1104.43 ± 0.21	1100.68 ± 0.21	1096.96 ± 0.21	1092.26 ± 0.2	1591.5 ± 2.2	1614 ± 2.2	1630.3 ± 2.2	1641.2 ± 2.2
m1 = 0.8	1137.97 ± 0.23	1133.93 ± 0.23	1129.43 ± 0.22	1124.5 ± 0.22	1634 ± 2.3	1653.8 ± 2.3	1667.3 ± 2.2	1676.2 ± 2.2

O [water]
[2]
Settings	speed of sound [m/s]
288.15 K	1463.1 ± 2.2
298.15 K	1495.8 ± 2.2
308.15 K	1519.1 ± 2.2
